Assay results reported in patent US5124158A, “Transdermal antisecretory agents for gastrointestinal disease” (The Upjohn Company, priority 1990, dated 1992).

Legend:
[1] = Transdermal application to backs of rats, (H+-K+) ATPase activity in fundic gastric mucosal microsomes (K+-dependent ATP-hydrolysis); type: in vivo, rat; conditions: rat, in vivo, topical or ocular, transdermal, lowest dose 25 mg/kg, read-out: fraction of the lowest dose absorbed
Experimental: (§1) The animals were allowed to rest for varying amounts of time and then the inhibition of (H^+ -K^+) ATPase, the enzyme responsible for gastric acid secretion, was measured.
(§2) For each of the following examples the drug dilutions were prepared in DMSO to a final concentration of 150 mg/ml. The drug was made fresh prior to each application.
(§3) The inhibition of (H^+ -K^+) ATPase activity was determined as described by Im, W. B.; Blalkeman, D. P., "Inhibitiion of Gastric pH^+ -K^+) ATPase by Unsaturated Long Chain Fatty Acids" Biochem. et Biophy. […] For the rat models, fundic gastric mucosal microsomes were prepared and (H^+ -K^+) ATPase activity in the microsomes was estimated by measuring K^+ -dependent ATP-hydrolysis.
(§4) Male, Upjohn Sprague Dawley rats were anesthetized with sodium pentobarbital and their dorsal hair removed with the depilatory NAIR. Care was taken to prevent abrasions which might result from hair removal. The animals were returned to their cages and allowed to recover for twenty-four hours. The rats were then fasted overnight in metal restraining tubes without water prior to treatment. 2-(4-ethylthio-3-methylpyridin-2-yl methyl)sulfinyl-benzimidazole at 0 or 100 mg/kg was applied to the backs of the rats and spread with an Eppendorf pipette tip. The same volume of DMSO alone was applied after 2 hrs to all animals. The rats were evaluated 5 or 30 hours after the initial dose for determination of (H^+ -K^+) ATPase activity.
as §4, with “Omeprazole” for “2-(4-ethylthio-3-methylpyridin-2-yl methyl)sulfinyl-benzimidazole”
(§5) Additional volumes (100 μl) of DMSO were spread over the treatment area one time (after two hours) or four times (after one, two, three and four hours). The animals were evaluated 5 hours after the initial dose for determination of (H^+ -K^+) ATPase activity.
(§6) Additional volumes (100 μl) of DMSO were spread over the treatment area after 2, 5, and 7 hours. The animals were evaluated 24 hours after the initial dose for determination of (H^+ -K^+) ATPase activity.

(H^+ -K^+) ATPase [2] = assay: as above; type: in vivo, rat
Experimental: as §1, §2, §3, §4
as §4, with “Omeprazole” for “2-(4-ethylthio-3-methylpyridin-2-yl methyl)sulfinyl-benzimidazole”
as §5, §6

(H^+ -K^+) ATPase [3] = assay: Transdermal application to rabbit ears, (H+-K+) ATPase activity in fundic mucosa; type: in vivo; conditions: rabbits, transdermal 100 mg/kg divided to both ears, DMSO after 1, 3, 5, 7, 24 and 25 hrs, evaluated 30 hrs after dose
Experimental: as §1, §2
The inhibition of (H^+ -K^+) ATPase activity was determined as described by Im, W. B.; Blalkeman, D. P., "Inhibitiion of Gastric pH^+ -K^+) ATPase by Unsaturated Long Chain Fatty Acids" Biochem. et Biophy. Acta 692:355-60 (1982). For the rat models, fundic gastric mucosal microsomes were prepared and (H^+ -K^+) ATPase activity in the microsomes was estimated by measuring K^+ -dependent ATP-hydrolysis.
For the rabbit models, mucosa from the fundic region was removed by blunt dissection and minced with scissors. 2.5 g of the minced tissue was placed in 25 ml of buffer containing 250 mM sucrose, 2 mM MgCl2, 1 mM EGTA, and 2 mM Hepes/Tris, pH 7.4. The tissues were then prepared as described for the rat gastric mucosa.
Male, New Zealand White rabbits were fasted overnight without water in their cages prior to treatment. The same compound as used in Example 1 was applied at 0 or 100 mg/kg in divided doses (1/2 to each ear) to naive rabbit ears. […] The rabbits were evaluated 30 hrs after the initial dose for determination of (H^+ -K^+) ATPase activity.

[4] = Signs of irritation after transdermal application; type: in vivo; conditions: rabbit ears, transdermal 100 mg/kg in DMSO
Experimental: Male, New Zealand White rabbits were fasted overnight without water in their cages prior to treatment. The same compound as used in Example 1 was applied at 0 or 100 mg/kg in divided doses (1/2 to each ear) to naive rabbit ears. The rabbits received an additional application of DMSO to the treatment area after 1, 3, 5, 7, 24 and 25 hrs. The rabbits were evaluated 30 hrs after the initial dose for determination of (H^+ -K^+) ATPase activity.

Compound	Fa [1] [%]	reduction of (H^+ -K^+) ATPase activity from control ((H^+ -K^+) ATPase [2]; transdermal 100 mg/kg in DMSO, DMSO alone after 2 hrs, evaluated 5 or 30 hours after dose (activity did not change with time))	additional reduction of (H^+ -K^+) ATPase activity by additional applications of DMSO ((H^+ -K^+) ATPase [2]; transdermal 100 mg/kg, four wipes of DMSO (1, 2, 3, 4 hours) versus one wipe, 5 hours) [%]	reduction of (H^+ -K^+) ATPase activity ((H^+ -K^+) ATPase [2]; transdermal 100 mg/kg, four wipes of DMSO (1, 2, 3, 4 hours), 5 hours) [%]	reduction of (H^+ -K^+) ATPase activity from control ((H^+ -K^+) ATPase [2]; transdermal 100 mg/kg, one DMSO wipe after two hours, evaluated 5 hours after dose (Example 3)) [%]	reduction of (H^+ -K^+) ATPase activity ((H^+ -K^+) ATPase [2]; transdermal 200 mg/kg, one wipe of DMSO after two hours, 5 hours) [%]	reduction in (H^+ -K^+) ATPase from the control ((H^+ -K^+) ATPase [2]; transdermal 25, 50 or 100 mg/kg (maximum even at the lower dose), DMSO after 2, 5 and 7 hours, evaluated 24 hours after dose) [%]	reduction of (H^+ -K^+) ATPase activity from control ((H^+ -K^+) ATPase [3]) [%]	signs of irritation [4]	reduction of (H^+ -K^+) ATPase activity as compared to the control ((H^+ -K^+) ATPase [2]; transdermal 100 mg/kg in DMSO, DMSO alone after 2 hrs, after 5 hours) [%]	reduction of (H^+ -K^+) ATPase activity as compared to the control ((H^+ -K^+) ATPase [2]; transdermal 100 mg/kg in DMSO, DMSO alone after 2 hrs, after 30 hours) [%]
CCSc1ccnc(C[S+]([O-])c2nc3ccccc3[nH]2)c1C (centres unmarked) [2-(4-ethylthio-3-methylpyridin-2-ylmethyl)sulfinyl-benzimidazole]	≥ 4	60-65%	16	81	65	72	~50	87	no signs of irritation were observed		
COc1ccc2[nH]c([S+]([O-])Cc3ncc(C)c(OC)c3C)nc2c1 (centres unmarked) [omeprazole, reference compound]										35	27
